# Experimental data reported in patent publication US20230115945A1, “AMINOPYRIMIDINE COMPOUNDS” (TYRA BIOSCIENCES, INC., priority 2019, published 2023).
# Assays:
# Assay type in all cases: cell-based
# [1] = test system: RT112/84 cells (Bladder Cancer, FGFR3-TACC3 fusion); assay: Cancer cell line cell viability assay, RT112/84; conditions: Homo sapiens, 72 hours, Cell Titer-Glo 2.0, read-out: Cancer Cell Viability Assays RT112/84 (IC50 nM)
# Description: [table] To detect the change of intracellular ATP by Cell Titer-Glo® and to evaluate the inhibitory effect of the compounds on cancer cell lines by determining the in vitro IC50 value of the compounds. Cell Titer-Glo® 2.0 Luminescent cell viability assay reagent was purchased from Promega (Madison, Wis.). RT112/84, SNU-16, and KG-1 cell lines were purchased from American Type Culture Collection (Manassas, Va.). UM-UC-14 cell line was purchased from Sigma (St. Louis, Mo.). RT112/84, UM-UC-14, SNU-16, and KG-1 cells were cultured in RPMI1640 media supplemented with 10% fetal bovine serum. Cultures were maintained at 37° C. in a humidified atmosphere of 5% CO2 and 95% air. Cell Viability Assay Procedure: Cells were plated in 96-well clear bottom/white plates (Corning #3903) at 10,000 cells/well in 100 μl of media, incubated overnight. The next day, test compound DMSO stock solutions were made at 10 mM and 2 μM final concentration. Compounds were then added to cells in a 9-dose, […] dilution series starting at 30 μM with an HP 300e Digital Dispenser (each dose was applied in triplicate). DMSO was backfilled to each well up to 301 nL total volume of test compound+DMSO, and a total of 301 nL DMSO was added to a control/no test compound well in triplicate. The cells in cell culture plates were incubated with the compounds at 37° C. and 5% CO2 for 72 hours. Then 50 μl of Cell Titer Glo 2.0 reagent was added to each well of the cell culture plates. The contents were covered from light and mixed on an orbital shaker at room temperature for 10 min. Luminescence was recorded by a Synergy H1 Microplate Reader (Biotek, Winooski, Vt.). Cells were assessed as a percentage of DMSO only treated control cells. Curves were plotted and IC50 values were calculated using the GraphPad Prism 8 program based on a sigmoidal dose-response equation (4 parameter).
# [2] = biological target: T1, FGFR3-BAIAP2L1 Ba/F3 cells (Homo sapiens, UniProt P22607); assay: Ba/F3 cell viability assay, FGFR3; conditions: FGFR3-BAIAP2L1 fusion Ba/F3, 48 hours, Cell Titer-Glo 2.0; read-out: Ba/F3 Cells FGFR3 (IC50 nM)
# T1 construct: Ba/F3 FGFR3; FGFR3--BAIAP2L1 fusion; Advanced Cellular Dynamics, (Seattle, WA); fused on or other part: Q9UHR4 (BAR/IMD domain-containing adapter protein 2-like 1)
# Description: Experimental Purpose: Recombinant kinase fusions are transduced into parental Ba/F3, which becomes dependent upon this constitutive kinase activity for IL3-independent survival. Inhibition of kinase activity leads to cell death, which is monitored using CellTiter-Glo® 2.0 (Promega) which measures intracellular ATP concentration that in turn serves as a marker for viability. FGFR1-BCR Ba/F3 and FGFR3-BAIAP2L1 Ba/F3 were obtained from Advanced Cellular Dynamics (Seattle, Wash.)
# Cell Viability Assay Procedure: Cell Titer-Glo® 2.0 Luminescent cell viability assay reagent was purchased from Promega (Madison, Wis.). FGFR1-BCR Ba/F3 and FGFR3-BAIAP2L1 Ba/F3 cells were cultured in RPMI1640 media supplemented with 10% fetal bovine serum. Cultures were maintained at 37° C. in a humidified atmosphere of 5% CO2 and 95% air.
# Cells were plated in 96-well clear bottom/white plates (Corning #3903) at 10,000 cells/well in 100 μl of media, incubated overnight. The next day, test compound DMSO stock solutions were made at 10 mM and 2 μM final concentration. Compounds were then added to cells in a 9-dose, 10-fold dilution series starting at 30 μM with an HP 300e Digital Dispenser (each dose was applied in triplicate). DMSO was backfilled to each well up to 301 nL total volume of test compound+DMSO, and a total of 301 nL DMSO was added to a control/no test compound well in triplicate. The cells in cell culture plates were incubated with the compounds at 37° C. and 5% CO2 for 48 hours. Then 50 μl of Cell Titer Glo 2.0 reagent was added to each well of the cell culture plates. The contents were covered from light and mixed on an orbital shaker at room temperature for 10 min. Luminescence was recorded by a Synergy H1 Microplate Reader (Biotek, Winooski, Vt.). Cells were assessed as a percentage of DMSO only treated control cells. Curves were plotted and IC50 values were calculated using the GraphPad Prism 8 program based on a sigmoidal dose-response equation (4 parameter).
# [3] = test system: UM-UC-14 cells (Bladder Cancer, FGFR3(S249C)); assay: Cancer cell line cell viability assay, UM-UC-14; conditions: UMUC14; 72 hours, Cell Titer-Glo 2.0; read-out: Cancer Cell Viability Assays UM-UC-14 (IC50 nM)
# Description: To detect the change of intracellular ATP by Cell Titer-Glo® and to evaluate the inhibitory effect of the compounds on cancer cell lines by determining the in vitro IC50 value of the compounds.
# Cell Titer-Glo® 2.0 Luminescent cell viability assay reagent was purchased from Promega (Madison, Wis.). RT112/84, SNU-16, and KG-1 cell lines were purchased from American Type Culture Collection (Manassas, Va.). UM-UC-14 cell line was purchased from Sigma (St. Louis, Mo.). RT112/84, UM-UC-14, SNU-16, and KG-1 cells were cultured in RPMI1640 media supplemented with 10% fetal bovine serum. Cultures were maintained at 37° C. in a humidified atmosphere of 5% CO2 and 95% air.
# Cell Viability Assay Procedure: Cells were plated in 96-well clear bottom/white plates (Corning #3903) at 10,000 cells/well in 100 μl of media, incubated overnight. The next day, test compound DMSO stock solutions were made at 10 mM and 2 μM final concentration. Compounds were then added to cells in a 9-dose, 10-fold dilution series starting at 30 μM with an HP 300e Digital Dispenser (each dose was applied in triplicate). DMSO was backfilled to each well up to 301 nL total volume of test compound+DMSO, and a total of 301 nL DMSO was added to a control/no test compound well in triplicate. The cells in cell culture plates were incubated with the compounds at 37° C. and 5% CO2 for 72 hours. Then 50 μl of Cell Titer Glo 2.0 reagent was added to each well of the cell culture plates. The contents were covered from light and mixed on an orbital shaker at room temperature for 10 min. Luminescence was recorded by a Synergy H1 Microplate Reader (Biotek, Winooski, Vt.). Cells were assessed as a percentage of DMSO only treated control cells. Curves were plotted and IC50 values were calculated using the GraphPad Prism 8 program based on a sigmoidal dose-response equation (4 parameter).
# T1 sequence (P22607 whole entry, change not shown, the tested form may be a part): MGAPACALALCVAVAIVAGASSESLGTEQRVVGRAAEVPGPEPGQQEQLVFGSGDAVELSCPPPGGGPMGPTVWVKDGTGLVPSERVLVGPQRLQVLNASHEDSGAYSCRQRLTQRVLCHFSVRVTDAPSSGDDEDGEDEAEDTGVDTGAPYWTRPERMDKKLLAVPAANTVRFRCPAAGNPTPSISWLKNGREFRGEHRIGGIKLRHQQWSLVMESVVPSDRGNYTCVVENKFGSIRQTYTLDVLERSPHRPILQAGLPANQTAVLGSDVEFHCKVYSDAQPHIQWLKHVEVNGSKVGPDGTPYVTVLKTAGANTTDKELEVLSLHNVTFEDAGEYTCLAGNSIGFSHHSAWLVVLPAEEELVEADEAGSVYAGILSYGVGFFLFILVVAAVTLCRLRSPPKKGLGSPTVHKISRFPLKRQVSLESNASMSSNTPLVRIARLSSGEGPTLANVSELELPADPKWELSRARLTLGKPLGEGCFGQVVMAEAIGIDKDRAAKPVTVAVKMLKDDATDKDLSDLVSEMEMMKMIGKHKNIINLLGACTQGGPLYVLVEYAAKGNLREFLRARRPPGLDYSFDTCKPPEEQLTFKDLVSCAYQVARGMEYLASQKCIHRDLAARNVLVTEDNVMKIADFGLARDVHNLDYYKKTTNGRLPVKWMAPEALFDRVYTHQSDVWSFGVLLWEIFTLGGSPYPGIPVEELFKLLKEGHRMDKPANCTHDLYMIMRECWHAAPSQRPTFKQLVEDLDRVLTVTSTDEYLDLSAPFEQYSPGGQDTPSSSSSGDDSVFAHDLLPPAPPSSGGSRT
Structure (SMILES),IC50 [1] [nM],GI50 [2] [nM],IC50 [3] [nM]
"C=CC(=O)Nc1ccc2c(c1)c(C)cn2-c1nc(Nc2ccc(N=S(C)(C)=O)c(F)c2)ncc1Cl [Example 60, N-[1-[5-Chloro-2-[4-[[dimethyl(oxo)-λ^6-sulfanylidene]amino]-3-fluoro-anilino]pyrimidin-4-yl]-3-methyl-indol-5-yl]prop-2-enamide]",16,10,6
"C=CC(=O)Nc1ccc2c(c1)c(C)cn2-c1nc(Nc2ccc(N=S(C)(C)=O)cc2)ncc1Cl [Example 61, N-[1-[5-Chloro-2-[4-[[dimethyl(oxo)-λ^6-sulfanylidene]amino]anilino]pyrimidin-4-yl]-3-methyl-indol-5-yl]prop-2-enamide]",23,15,12
"C=CC(=O)Nc1ccc2c(c1)c(C)cn2-c1nc(Nc2ccc(N=S(C)(C)=O)c(F)c2)ncc1C#N [Example 62, N-[1-[5-Cyano-2-[4-[[dimethyl(oxo)-λ^6-sulfanylidene]amino]-3-fluoro-anilino]pyrimidin-4-yl]-3-methyl-indol-5-yl]prop-2-enamide]",64,46,152
"C=CC(=O)Nc1ccc2c(c1)c(C)cn2-c1nc(Nc2ccc(N=S(C)(C)=O)c(F)c2)ncc1C [Example 63, N-[1-[2-[4-[[dimethyl(oxo)-λ^6-sulfanylidene]amino]-3-fluoro-anilino]-5-methyl-pyrimidin-4-yl]-3-methyl-indol-5-yl]prop-2-enamide]",8,5,3
"C=CC(=O)Nc1ccc2c(c1)c(C)cn2-c1nc(Nc2ccc(N=S(C)(C)=O)c(OC)c2)ncc1Cl [Example 64, N-[1-[5-Chloro-2-[4-[[dimethyl(oxo)-λ^6-sulfanylidene]amino]-3-methoxy-anilino]pyrimidin-4-yl]-3-methyl-indol-5-yl]prop-2-enamide]",12,12,3
"C=CC(=O)Nc1ccc2c(ccn2-c2nc(Nc3ccc(N=S(C)(C)=O)cc3)ncc2Cl)c1 [Example 66, N-[1-[5-chloro-2-[4-[[dimethyl(oxo)-λ^6-sulfanylidene]amino]anilino]-pyrimidin-4-yl]indol-5-yl]prop-2-enamide]",113,28,34
"C=CC(=O)Nc1ccc2c(ccn2-c2nc(Nc3ccc(S(C)(=N)=O)cc3)ncc2Cl)c1 (stereo not drawn) [Example 70, N-[1-[5-Chloro-2-[4-(methylsulfonimidoyl)anilino]-pyrimidin-4-yl]indol-5-yl]prop-2-enamide]",159,34,34
"C=CC(=O)Nc1ccc2c(-c3nc(Nc4ccc(N=S(C)(C)=O)cc4)ncc3Cl)cn(C)c2c1 [Example 92, N-[3-[5-chloro-2-[4-[[dimethyl(oxo)-λ^6-sulfanylidene]amino]anilino]pyrimidin-4-yl]-1-methyl-indol-6-yl]prop-2-enamide]",47,15,10
